Laboratory results as given in patent US20260364101A1, “OLEUROPEIN IN THE MANAGEMENT OF CANCER” (FUNDACIÓN MIGUEL SERVET, priority 2023, published 2026).

Legend:
MDSCs = assay: ex vivo differentiated MDSCs treated with compound, marker expression by flow cytometry (FIG. 1a); type: cell-based, mouse; details: BML-275 500 nM alone or with oleuropein 50 μM; MDSCs
Procedure: (§1) Immunosuppressive myeloid cell subsets resembling tumor-infiltrating subsets (g-MDSCs, m-MDSCs and TAMs) were differentiated from mouse bone marrow following published procedures using conditioning medium produced by LLC tumor cells stably expressing GMCSF and MCSF cells. g- and m-MDSCs were purified using the myeloid-derived suppressor cell isolation kit (Miltenyi Biotec, Bergisch, Germany) according to manufacturer's recommendations. MDSCs and TAMs were seeded with 500 nM BML-275 or 50 μM oleuropein and incubated for seven days.
(§2) Surface and intracellular staining were carried out as described before with the following fluorochrome-conjugated antibody clones: AF488 anti-CD49d (R1-2), PE anti-CD4 (GK1.5), APCanti-CD8(53-6.7), brilliant Violet 510™ anti-I-A/I-E (M5/114.15.2,PE/Cyanine7anti-Ly-6G (1A8), and APC anti-CD80 (16-10A1) (Biolegend), FITC anti-IL-12 (C15.6) and BV421 anti-IL-2 (JES6-5H4) (BD Bioscience), APC-Vio® 770 anti-Ly-6C (REA796), PE REAfinity™ anti-F4/80 (REA126), and APC anti-CD68 (REA886) (Miltenyi), PerCP-Cyanine5.5 Anti-Human/Mouse CD11b (M1/70) (Tonbo), and AF488 anti-IFNγ (Clone XMG1.2) (BD Pharmigen). For human cells, it was used the following fluorochrome-conjugated antibodies: PerCP-Cy5.5-anti-CD11b (integrina alfa M) (M1/70), Violet Fluor 450 anti-CD14 antibody (61D3) (Tonbo), PE anti-CD115 (CSF-1R) (9-4D2-1E4) (Biolegend), PE-Cy™7 anti-CD11c (Clone B-ly6) (BD Bioscience), and APC anti-HLA-DR (REA517) (Miltenyi).
(§3) Data were collected using the FACSCanto Flow Cytometer (BD Biosciences) for ex vivo and in vitro experiments at Navarrabiomed Biomedical Research Center and Cyroflex LX flow cytometer (Beckman Counter). Data were analyzed with Flowjo.

TAMs = assay: ex vivo differentiated TAMs treated with compound, marker expression by flow cytometry (FIG. 1b); type: cell-based, mouse; details: BML-275 500 nM
Procedure: as §1, §2, §3

CD4 T cells [1] = assay: mixed lymphocyte reaction (MLR) with MDSCs as stimulator cells (FIG. 1c,d); type: cell-based, mouse; details: treated MDSCs as stimulators; 5 days
Procedure: (§4) MLR were carried out following standard procedures. Briefly, 100,000 MDSCs or TAMs from C57BL/6 mice were co-cultured in 96-well plates with 100,000 lymphocytes from BALB/c mice. Co-cultured cells were treated with 50 µM oleuropein and compared with control vehicle. After 5 days, T-lymphocyte activation, differentiation and proliferation were assessed by flow cytometry. T-cell activation and proliferation markers (Ki-67) and pro-inflammatory cytokine production (IL-2 and IFNγ) were evaluated by flow cytometry in CD4 and CD8 T cells as described before.
as §2

CD4 T cells [2] = assay: mixed lymphocyte reaction (MLR) with TAMs as stimulator cells (FIG. 1c,d); type: cell-based, mouse; details: treated TAMs as stimulators; 5 days
Procedure: as §4
as §2, with “For human cells, it was used the following fluorochrome-conjugated antibodies: PerCP-Cy5.5-anti-CD11b (integrina alfa M) (M1/70), Violet Fluor 450 anti-CD14 antibody (61D3) (Tonbo), PE anti-CD115 (CSF-1R) (9-4D2-1E4) (Biolegend), PE-Cy™7 anti-CD11c (Clone B-ly6) (BD Bioscience), and APC anti-HLA-DR (REA517) (Miltenyi).” left out

MDSC and CD3 T cells = details: related art; cited from earlier work

Row | SMILES | expression of CD49d (MDSCs) | CD68 (M1 marker) (TAMs; AMPK inhibition in TAMs) | cells co-expressing MHC-II and CD80 (TAMs; oleuropein 50 μM, TAMs) | CD4 T cell stimulation assessed by IFNγ and IL-2 production (CD4 T cells [1]) | CD4 T cell stimulation assessed by IFNγ and IL-2 production (CD4 T cells [2]) | effect on MDSC and CD3 T cells (MDSC and CD3 T cells)
1 | c1cc(-c2cnn3cc(-c4ccc(OCCN5CCCCC5)cc4)cnc23)ccn1 [BML-275, reference compound] | reduced | increased | significant elevation | weaker | weaker | –
2 | Nc1ccn([C@@H]2O[C@H](CO)[C@@H](O)C2(F)F)c(=O)n1 [gemcitabine] | – | – | – | – | – | simultaneously reduces the MDSC and the CD3 T cells
